test system: 5-hydroxytryptamineor histamine induced bronchoconstriction; assay: Inhibition of 5-hydroxytryptamine or histamine induced bronchoconstriction (Konzett-Rossler preparation); type: in vivo; conditions: Cavia porcellus, iv, anaesthetised artificially respired guinea-pig
Text: The compounds are examined for their ability to inhibit 5-hydroxytryptamineor histamine induced bronchoconstriction in the anaesthetised artificially respired guinea-pig (Konzett-Rossler preparation).
The ED50 values (μg/kg, i.v.) for inhibition of bronchoconstriction for a variety of the triazolidine-3,5-diones are given in Table 7.

Row | Compound | ED50
1 | CCCCCC(O)CCn1c(=O)n(C)c(=O)n1CCCCCCC(=O)OCC (stereo not shown) [Compound 21, 1-(6'-Ethoxycarbonyl-n-hexyl)-2-(3"-hydroxy-n-octyl)-4-methyl-1,2,4-triazolidine-3,5-dione] | 3.4 µg/kg
2 | CCCCCC(O)CCn1c(=O)n(C)c(=O)n1CCCCCCC(=O)O (stereo not shown) [Compound 24, 1-(6'-Carboxy-n-hexyl)-2-(3"-hydroxy-n-octyl)-4-methyl-1,2,4-triazolidine-3,5-dione] | 4 µg/kg
3 | CCCCCCC(C)(O)CCn1c(=O)n(C)c(=O)n1CCCCCCC(=O)OC (stereo not shown) [Compound 29, 1-(6'-methoxycarbonyl-n-hexyl-)-2-(3"-hydroxy-3"-methyl-n-nonyl)-4-methyl-1,2,4-triazolidine-3,5-dione] | 2.6 µg/kg
4 | COC(=O)CCCCCCn1c(=O)n(C)c(=O)n1CCC(C)(O)Cc1ccccc1 (stereo not shown) [Compound 31] | 37 µg/kg
5 | CCCCC(C)C(C)(O)CCn1c(=O)n(C)c(=O)n1CCCCCCC(=O)OC (stereo not shown) [Compound 32] | 0.74 µg/kg
6 | COC(=O)CCCCCCn1c(=O)n(C)c(=O)n1CCC(C)(O)C1CCCCC1 (stereo not shown) [Compound 33] | 2.6 µg/kg
7 | CCCCCCC(C)(O)CCn1c(=O)n(C)c(=O)n1CC=CCCCC(=O)OC (stereo not shown) [Compound 43, 1-(6'-methoxycarbonyl-n-hex-2-enyl)-2-(3"-hydroxy-3"-methyl-n-nonyl)-4-methyl-1,2,4-triazolidine-3,5-dione] | 1.9 µg/kg

Source: patent US4460595A, “Using urazole analogs of prostaglandins for bronchodilation” (Beecham Group Limited, priority 1976, dated 1984)
